Marks after values point to notes of the source that are not given here.
Key:
Assay type in all cases: physicochemical
Conditions in all cases: mean ± DE of three replicate experiments
NO removal assay = experiment: NO removal assay
Procedure: (§1) We confirmed the removal activity of the polyphenol rich extract from microfiltered blackberry juice using different methods (Chart 11), and this activity was compared with the flavonoid remover of quercetin radicals.
Four hours of pretreatment with the blackberry extract reduced NO production in a dose dependent manner only when the LPS+IFNγ was incubated with the extract (no wash). If the extract is removed before the addition of LPS+IFNγ (with rinsing), inhibition of NO production was seen only in the highest concentration tested.

[1] = Antioxidant capacity (ORAC)
Source text: as §1

DPPH radical removal = experiment: DPPH radical removal
Source text: as §1

O=c1c(O)c(-c2ccc(O)c(O)c2)oc2cc(O)cc(O)c12 [Quercetin]
No Removal IC50 (NO removal assay): 6.57 ± 0.8^b μg/mL
ORAC [1]: 2067 ± 81^b μM TE/g
DPPH IC50 (DPPH radical removal): 2.17 ± 0.08^b μg/mL

Source: US10278949B2, “Method for obtaining an extract rich in ellagic acid tannins from fruits that contain these compounds, and resulting extract” (UNIVERSIDAD DE COSTA RICA, priority 2011, dated 2019)
